# In a melting point compilation (Tetko et al.; mined from patent text by program, amines drawn as free bases though some values may be those of a salt):
row,melting point [°C],Compound
1,195 to 196,COc1cc(OC)cc(-c2cc(=O)c3ccc(OCC(O)CN4CCN(c5ccccc5)CC4)cc3o2)c1 (stereo not drawn)
2,77 to 80,Cc1cccc2c(=O)c3ccccc3ccc12
3,124 to 125,CCCCCOc1cc(C=Cc2nc3c(s2)NCCCC3)ccc1OC
4,58 to 61,CCc1ncnc(NC(CC)c2ccc(Oc3c(F)c(F)c(C(F)(F)F)c(F)c3F)cc2)c1Cl (stereo not drawn)
5,207,Cn1c(O)nc2cc(Cn3ccnc3)ccc21
6,55 to 56,FC(F)c1ncnc(-c2ccc(Cl)cc2Cl)c1Cl
7,250,O=C(Nc1ncc(C(F)(F)F)o1)C1c2ccccc2Oc2cc(F)ccc21 (racemic)
8,55 to 57,CCOC(=O)c1c(C)nc(NCCCN(C)C)c2nccnc12
9,208 to 210,CC(=O)Nc1ccc(S(=O)(=O)Nc2onc(C)c2Br)cc1
10,187 to 188,Cc1ccn(-c2ccc(S(N)(=O)=O)cc2)c1-c1ccc(F)cc1
11,103 to 105,CCOC(=O)c1c(C)cc2nc(CSC(C)=O)n(-c3ccccc3Cl)c(=O)c2c1C
12,188 to 189,CCOC(=O)c1cc(N)nc(SCc2ccc3ccccc3c2)n1
13,127 to 128,CCOC(=O)C(O)=Cc1ccc(Oc2ccccc2)nn1
14,102,O=[N+]([O-])c1cc(CN2CCN(C(c3ccccc3)c3ccccc3)CC2)ccc1Cl
15,95 to 98,CCOC(=O)c1ncoc1-c1cnc(Cl)c(Cl)c1
16,174 to 175,Cc1ccc(C(=S)c2ccc3n2CCCC3C(=O)O)cc1 (stereo not drawn)
17,86 to 88,CC(C)(O)C(C(=O)O)c1ccc(F)cc1 (stereo not drawn)
18,136,CCOc1cc2ncc(NCc3ccccc3)nc2cc1OCC
19,246 to 247,N#Cc1c(Cl)n(C2OC(CF)C(O)C2O)c2cc(Cl)c(Cl)cc12 (stereo not drawn)
20,70 to 75,O=C/C(=C/c1ccccc1)c1ccc(Cl)cc1
21,238 to 239,Oc1ccc(-c2cc(O)ccc2-c2cc3cc(O)ccc3o2)cc1
22,103 to 105,COc1ccnc(CO)c1Cl
23,80 to 82,N#CCC(C#N)=NNc1c(Cl)cc(C(F)(F)F)cc1Cl
24,238 to 240,O=S1(=O)N=CN(C2CCC2)c2cc(Cl)c(Cl)cc21

row,melting point [°C],Compound
1,210 to 211,O=P(Oc1ccc(S(=O)(=O)c2ccc(OP(=O)(c3ccccc3)c3ccccc3)cc2)cc1)(c1ccccc1)c1ccccc1
2,180 to 183,O=C(NNC(=O)c1occ(-c2ccccc2)c1-c1ccccc1)c1ccoc1
3,86 to 87,CC#CNc1c([N+](=O)[O-])cc(C(F)(F)F)c(Cl)c1[N+](=O)[O-]
4,190 to 193,CCOC(=O)n1cc(F)c(N)nc1=O
5,230 to 233,COc1ccc(-n2c(-c3cccnc3)nc(SC)c(C#N)c2=O)cc1
6,198 to 200,O=C1Nc2cc(C(F)(F)F)ccc2C1(O)c1cc(Cl)ccc1O (stereo not drawn)
7,139,OCCN1CCC(Nc2nc3ccccc3n2Cc2ccc(F)cc2)CC1
8,191 to 192,O=c1c2ccccc2oc2c(CBr)cccc12
9,195 to 197,NC(=O)c1nnsc1Nc1ccccc1
10,164 to 165,Cn1cc(Sc2ccccc2)c(=O)c(-c2cccc(C(F)(F)F)c2)c1
11,120 to 122,COc1ccc(CNC(=O)c2[nH]c(C)c(-c3nc4ccc(C(=O)c5ccccc5)cc4[nH]3)c2C)cc1OC
12,178,COc1ccc(Cl)cc1C(=O)NCCc1ccc(Sc2ccccc2)c(S(N)(=O)=O)c1
13,105 to 107,O=C(Nc1ccc(Cl)cn1)c1cc(Cl)ccc1NCC1CCN(C(=O)N2CCOCC2)CC1
14,40.3 to 42.3,COC[C@H]1CC[C@H](c2ccc(I)cc2)CC1
15,89 to 90,CCOC(=O)c1c(NC2CC(C)(C)NC(C)(C)C2)cc(C)nc1C
16,38 to 40,BrCc1cccc(OCc2ccccc2)c1
17,126 to 128,CNc1nc(C(C)c2ccc(-c3ccccc3)c(F)c2)c(C=O)s1 (stereo not drawn)
18,93 to 97,CCCCCCCCCCCCCCCCC(C(=O)O)S(C)=O (stereo not drawn)
19,51 to 54,CCN(CC)CCNC(=O)c1[nH]c(-c2ccc(Cl)cc2)c2ccccc12
20,151 to 153,Cc1ccccc1-n1c(=O)c(N2CCNCC2)nc2ccccc21
21,237 to 239,C[C@H]([C@](O)(Cn1cncn1)c1ccc(F)cc1F)S(=O)(=O)N1CCN(c2ccc(-n3cnn(CC(F)(F)F)c3=O)cc2)CC1
22,116 to 122,COc1ccc(OCc2ccccn2)cc1/C=C/c1cc(/C=C/c2ccc3[nH]ccc3c2)n[nH]1
23,56 to 61,CCOC(=O)c1c(C(F)(F)F)nc(C(F)(F)F)c(C(=O)OCC)c1Br
24,217 to 218,CCc1ccnc(C(=O)c2[nH]c3ccc(Cl)cc3c2CC(=O)O)c1

row,melting point [°C],Compound
1,93 to 95,Cc1ccc(CN(C)C(=O)C23CC4CC(CC(C4)C2)C3)cc1
2,302 to 304,OCc1cnc2cc(C(F)(F)F)ccc2c1O
3,94 to 95,COC(=O)CCC(=O)c1ccc2c(c1)CC(CCCCNC(C)=O)C2 (stereo not drawn)
4,123 to 125,CSc1nnc(-c2ccc(OCC(O)CNCCOc3ccc(O)c(C(N)=O)c3)cc2)n1C (stereo not drawn)
5,78 to 80,CN(C)Cc1nc(-c2ccccc2)cn1Cc1ccccc1
6,118 to 120,COc1cc2c(c3c1OC(C)(C)C3)C(c1cccc(SCC(N)=O)c1)=NC(C)(C)C2
7,156 to 157,O=C(Nc1cccc(C(F)(F)F)c1F)c1ccccc1[N+](=O)[O-]
8,196,CC1=NN(C(=O)NS(=O)(=O)c2c(F)cccc2F)CC1
9,290,CC(C)(C)c1ccccc1N1CCN(C(=O)C2CCC(=O)N2)CC1 (stereo not drawn)
10,250 to 252,Oc1ccc2cc(-c3noc4ccc(O)cc34)ccc2c1
11,76 to 79,COC(=O)c1c(CBr)cccc1CBr
12,110 to 112,N#CCSC(C(=O)O)c1ccccc1 (stereo not drawn)
13,86 to 87,NC(=O)C1CCCN(C(c2ccccc2)c2ccccc2)C1 (stereo not drawn)
14,150 to 152,COC(=O)C1=C(C)Nc2ccccc2SC1c1ccc([N+](=O)[O-])cc1 (stereo not drawn)
15,124 to 136,COC1(c2cc(F)cc(Sc3ccc4c(c3)C=CC4=NO)c2)CCOCC1
16,168 to 170,COc1cc(NC(=O)n2cc(F)c(=O)[nH]c2=O)cc(OC)c1OC
17,112 to 114,CCOC(=O)C(CC)=C(C)NC(=O)Nc1cc(OC(C)C)c(Cl)cc1F
18,83,COC(=O)c1c(F)cc(OCCNC(=O)C2Cc3ccccc3N2S(=O)(=O)c2ccc(-c3ccc(F)cc3)cc2)cc1F (stereo not drawn)
19,113 to 116,O=C(NN1CCCCC1)C1CN(c2ccc(Cl)cc2)C(c2ccc(Cl)cc2Cl)=N1 (stereo not drawn)
20,248 to 251,COc1ccc(C(=O)Nc2ccccc2)c2c1OCC2CC(=O)O (stereo not drawn)
21,140 to 143,CN(C)C=C1C(=O)N(c2cccc(C#N)c2)c2ccccc21
22,204 to 205,O=S(=O)(NCCCO)c1ccc(Nc2nccc(-c3ccc(C(F)(F)F)cc3)n2)cc1
23,198 to 200,CNc1cccc(-c2csc(NC(=N)N)n2)c1
24,228 to 229,Cc1nc2c3c(c(C(=O)NCCO)cc2n1C)CCC(c1ccccc1)O3 (stereo not drawn)

row,melting point [°C],Compound
1,108 to 109,CC1(C)COC(=O)OC1
2,285 to 288,CS(=O)(=O)NCC1COCc2nc3c(N)nc4ccccc4c3n21 (stereo not drawn)
3,150 to 154,C#Cc1cccc(NC(=O)CCCC(=O)O)c1
4,83 to 85,COC1=CC(N)C(C)(Cl)C=C1 (stereo not drawn)
5,96 to 97,CN1Cc2c(cc(CN3CCOCC3)n2C)C(c2ccccc2)C1 (stereo not drawn)
6,47 to 49,BrCc1cccc(OCCCCOc2ccccc2)c1
7,169 to 171,CON=C1CCS(=O)(=O)c2c(C)cc(C(=O)O)c(C)c21
8,154 to 160,O=C(O)C(Cc1ccccc1)Oc1ccc2cc(-c3csc(-c4ccccc4)n3)ccc2c1 (stereo not drawn)
9,240 to 242,CCc1nc2cc(Cl)c(S(N)(=O)=O)cc2[nH]1
10,62 to 63,COC(=O)CC1OC(=O)c2ccccc21 (stereo not drawn)
11,232 to 233,CCCCCCc1ccnc(-c2ccc(C(N)=O)cc2)n1
12,180 to 181,CCc1cccc(C)c1S(=O)(=O)c1nc[nH]n1
13,252 to 253,CCCOc1ncc(NC(C)=O)cc1-c1nc2c(CCC)nn(C)c2c(=O)[nH]1
14,54.5 to 56,CCCCCCCCCCCc1nc2c(O)c(Cl)c(C)c(Cl)c2cc1CCCCCCCCCC
15,274 to 280,O=C(NCc1c(F)cccc1F)c1[nH]c2ccc(Cl)cc2c1S(=O)(=O)c1ccccc1
16,94 to 95,CCOC(=O)c1csc([N+](=O)[O-])c1Br
17,118 to 120,CCCCNC(=O)Cc1ccc(O)c(C2CCCCC2)c1
18,119 to 120,CC#CCOc1ccc(S(=O)(=O)N2Cc3ccccc3N(C(=O)c3ccco3)CC2C(=O)OC)cc1 (stereo not drawn)
19,> 250,CCOC(=O)c1nc2c(=O)[nH]c3cc(C(F)(F)F)ccc3n2c1CP(=O)(O)O
20,157 to 160,CNCc1ccc(Cc2nc3ccccc3[nH]2)cc1
21,144 to 146,Cc1oc(-c2ccccc2)nc1C(=O)NN
22,148 to 150,COC(=O)C1=C(C)NCC(C)(C(=O)OC)C1c1ccccc1C=C[Si](C)(C)C (stereo not drawn)
23,113 to 115,COC(=O)C=Cc1cccc2[nH]ccc12
24,177 to 178,O=C1CCN(Cc2cc([N+](=O)[O-])ccc2O)CC1C(c1ccccc1)c1ccccc1 (stereo not drawn)

row,Compound,melting point [°C]
1,Cc1cc(NC(=O)C(C)(O)COc2ccc(CCCl)c(F)c2)ccc1[N+](=O)[O-] (stereo not drawn),77 to 79
2,N#Cc1nn(-c2c(Cl)cc(C(F)(F)F)cc2Cl)cc1C=C(F)F,75 to 77
3,CCC(C)OC(=O)C(Br)=CC1C(C(=O)OC(C#N)c2cccc(Oc3ccccc3)c2)C1(C)C (stereo not drawn),76
4,Cc1ccc(S(=O)(=O)OC2CCC3(C)C4CCC5(C)C(=O)CCC5C4CC(O)C3(O)C2)cc1 (stereo not drawn),154 to 156
5,CNC(=O)Oc1c(OC)c(OC)c(OC(=O)NC)c2ccccc12,228 to 229
6,CCCC(O)P(=O)(O)CCCN (stereo not drawn),188
7,CCCCCCCCCCCCCCCCCCN(C)P1OCC2(CO1)COP(N(C)CCCCCCCCCCCCCCCCCC)OC2 (stereo not drawn),70 to 72
